Laboratory results: US20250009689A1, “GASTRO-RETENTIVE ORAL DOSAGE UNIT CONTAINING A LOCAL ANAESTHETIC” (OREXA B.V., priority 2021, published 2025)
Marks after values point to notes of the source that are not given here.

Tests used:
[1] = system: fundus strips (stomach muscularis); assay: Fundus strip length after acetylcholine-induced contraction; parameters: species or system domestic pigs; settings: for Strip length (as percentage of baseline): 70 mg/L + acetylcholine 10^-4 M, 37° C.
Method: Within the gastro-intestinal tract, local circuits play a role in the regulation of food intake and transport. Mechanical extension of the stomach as a result of food intake activates stretch receptors (neurons) which in turn induces satiety signals. The pharmacology of stretch receptors can be analyzed in fundus strip preparations. Fresh stomach tissue (0-1 h after slaughter) was collected from routinely slaughtered domestic pigs. The fundus region of the stomach was removed and washed with cold saline (0.9% NaCl) solution. Tissue was submerged in clean cold saline and transported to the laboratory (transport time 30 min.). The mucosa and submucosa were removed from the muscularis (muscle layer). The muscularis was cut along the longitudinal muscle fibres in strips of approximately 1 by 5 cm. The strips were incubated for 15 min in a 37° C. saline solution. Thereafter, fundus strips were placed vertically in a transparent container, kept at 37° C. Stretching was ensured by a 5 g weight at the bottom of the strip. Test solutions were added into the container. Acetylcholine (10^−4M) exposure was used to induce a contraction of the fundus tissue. Pictures were taken at 0, 5, 10, 15, 30, 45 and 60 minutes after the start of the experiment with a digital camera. The length of the strips was measured by a blinded assessor (unknowing of the treatment) using Photoshop software (Adobe).

[2] = system: fundus strips (stomach muscularis); assay: Acid sensitivity of lidocaine: acetic acid pre-exposure, then fundus strip experiment; parameters: species or system domestic pigs
Method: Fresh stomach tissue (0-1 h after slaughter) was collected from routinely slaughtered domestic pigs. The fundus region of the stomach was removed and washed with cold saline (0.9% NaCl) solution. Tissue was submerged in clean cold saline and transported to the laboratory (transport time 30 min.).
The mucosa and submucosa were removed from the muscularis (muscle layer). The muscularis was cut along the longitudinal muscle fibres in strips of approximately 1 by 5 cm. The strips were incubated for 15 min in a 37° C. saline solution.
Thereafter, fundus strips were placed vertically in a transparent container, kept at 37° C. Stretching was ensured by a 5 g weight at the bottom of the strip. Test solutions were added into the container. Acetylcholine (10^−4M) exposure was used to induce a contraction of the fundus tissue. Pictures were taken at 0, 5, 10, 15, 30, 45 and 60 minutes after the start of the experiment with a digital camera. The length of the strips was measured by a blinded assessor (unknowing of the treatment) using Photoshop software (Adobe). Values were expressed as percentage of baseline (t=0 min).
The acid sensitivity of lidocaine was determined by exposing lidocaine to acetic acid (pH 2.5) for 1, 5 and 15 minutes before carrying out experiments on fundus strips, as in Example 5.

Compound: CCOC(=O)c1ccc(N)cc1 [Benzocaine, benzocaine]
- Strip length (as percentage of baseline) ([1]; time 0 min (baseline)): 100 percentage of baseline
- Strip length (as percentage of baseline) ([1]; time 5 min): 102.7* percentage of baseline
- Strip length (as percentage of baseline) ([1]; time 10 min): 102.3* percentage of baseline
- Strip length (as percentage of baseline) ([1]; time 15 min): 102.4** percentage of baseline
- Strip length (as percentage of baseline) ([1]; time 30 min): 101.5* percentage of baseline
- Strip length (as percentage of baseline) ([1]; time 45 min): 101.3** percentage of baseline
- Strip length (as percentage of baseline) ([1]; time 60 min): 101.3** percentage of baseline

Compound: CCCNC(C)C(=O)Nc1ccccc1C (centres unmarked) [Prilocaine, prilocaine]
- Strip length (as percentage of baseline) ([1]; time 0 min (baseline)): 100 percentage of baseline
- Strip length (as percentage of baseline) ([1]; time 5 min): 105.1* percentage of baseline
- Strip length (as percentage of baseline) ([1]; time 10 min): 105.8** percentage of baseline
- Strip length (as percentage of baseline) ([1]; time 15 min): 106.2** percentage of baseline
- Strip length (as percentage of baseline) ([1]; time 30 min): 106.3** percentage of baseline
- Strip length (as percentage of baseline) ([1]; time 45 min): 104.1* percentage of baseline
- Strip length (as percentage of baseline) ([1]; time 60 min): 100.2* percentage of baseline

Compound: CN(C(=O)CN(CCO)CC(=O)N(C)C(C)(C)Cc1ccccc1)C(C)(C)Cc1ccccc1 [Oxethazaine]
- Strip length (as percentage of baseline) ([1]; time 0 min (baseline)): 100 percentage of baseline
- Strip length (as percentage of baseline) ([1]; time 5 min): 104.5 percentage of baseline
- Strip length (as percentage of baseline) ([1]; time 10 min): 104.8* percentage of baseline
- Strip length (as percentage of baseline) ([1]; time 15 min): 104.3* percentage of baseline
- Strip length (as percentage of baseline) ([1]; time 30 min): 101.3 percentage of baseline
- Strip length (as percentage of baseline) ([1]; time 45 min): 98.2 percentage of baseline
- Strip length (as percentage of baseline) ([1]; time 60 min): 94.6 percentage of baseline

Compound: CCCCN1CCCCC1C(=O)Nc1c(C)cccc1C (centres unmarked) [Bupivacaine, bupivacaine]
- Strip length (as percentage of baseline) ([1]; time 0 min (baseline)): 100 percentage of baseline
- Strip length (as percentage of baseline) ([1]; time 5 min): 106.4*** percentage of baseline
- Strip length (as percentage of baseline) ([1]; time 10 min): 107.1*** percentage of baseline
- Strip length (as percentage of baseline) ([1]; time 15 min): 107.0*** percentage of baseline
- Strip length (as percentage of baseline) ([1]; time 30 min): 106.8*** percentage of baseline
- Strip length (as percentage of baseline) ([1]; time 45 min): 104.9*** percentage of baseline
- Strip length (as percentage of baseline) ([1]; time 60 min): 101.9*** percentage of baseline

Compound: CCN(CC)CC(=O)Nc1c(C)cccc1C [Lidocaine, lidocaine]
- Acid sensitivity (activity after exposure to low pH) ([2]; acetic acid pH 2.5, conclusion in words): inactivated at low pH
- Activity on acetylcholine induced contraction after shortest acid exposure ([2]; acid exposure time 1 min, conclusion in words): remains active
- Strip length (percentage of baseline) ([2]; lidocaine exposed 1 min. to acetic acid pH 2.5, time 0 min (baseline)): 100 percentage of baseline
- Strip length (percentage of baseline) ([2]; lidocaine exposed 1 min. to acetic acid pH 2.5, time 5 min): 114.9 percentage of baseline
- Strip length (percentage of baseline) ([2]; lidocaine exposed 1 min. to acetic acid pH 2.5, time 10 min): 115.8 percentage of baseline
- Strip length (percentage of baseline) ([2]; lidocaine exposed 1 min. to acetic acid pH 2.5, time 15 min): 116.7 percentage of baseline
- Strip length (percentage of baseline) ([2]; lidocaine exposed 1 min. to acetic acid pH 2.5, time 30 min): 116.2* percentage of baseline
- Strip length (percentage of baseline) ([2]; lidocaine exposed 1 min. to acetic acid pH 2.5, time 45 min): 115.0* percentage of baseline
- Strip length (percentage of baseline) ([2]; lidocaine exposed 1 min. to acetic acid pH 2.5, time 60 min): 113.6* percentage of baseline
- Strip length (percentage of baseline) ([2]; lidocaine exposed 5 min. to acetic acid pH 2.5, time 0 min (baseline)): 100 percentage of baseline
- Strip length (percentage of baseline) ([2]; lidocaine exposed 5 min. to acetic acid pH 2.5, time 5 min): 108.9 percentage of baseline
- Strip length (percentage of baseline) ([2]; lidocaine exposed 5 min. to acetic acid pH 2.5, time 10 min): 108.3 percentage of baseline
- Strip length (percentage of baseline) ([2]; lidocaine exposed 5 min. to acetic acid pH 2.5, time 15 min): 108.0 percentage of baseline
- Strip length (percentage of baseline) ([2]; lidocaine exposed 5 min. to acetic acid pH 2.5, time 30 min): 108.0 percentage of baseline
- Strip length (percentage of baseline) ([2]; lidocaine exposed 5 min. to acetic acid pH 2.5, time 45 min): 106.8 percentage of baseline
- Strip length (percentage of baseline) ([2]; lidocaine exposed 5 min. to acetic acid pH 2.5, time 60 min): 104.9 percentage of baseline
- Strip length (percentage of baseline) ([2]; lidocaine exposed 15 min. to acetic acid pH 2.5, time 0 min (baseline)): 100 percentage of baseline
- Strip length (percentage of baseline) ([2]; lidocaine exposed 15 min. to acetic acid pH 2.5, time 5 min): 106.3 percentage of baseline
- Strip length (percentage of baseline) ([2]; lidocaine exposed 15 min. to acetic acid pH 2.5, time 10 min): 105.9 percentage of baseline
- Strip length (percentage of baseline) ([2]; lidocaine exposed 15 min. to acetic acid pH 2.5, time 15 min): 105.2 percentage of baseline
- Strip length (percentage of baseline) ([2]; lidocaine exposed 15 min. to acetic acid pH 2.5, time 30 min): 102.4 percentage of baseline
- Strip length (percentage of baseline) ([2]; lidocaine exposed 15 min. to acetic acid pH 2.5, time 45 min): 97.6 percentage of baseline
- Strip length (percentage of baseline) ([2]; lidocaine exposed 15 min. to acetic acid pH 2.5, time 60 min): 93.8 percentage of baseline
- Strip length (as percentage of baseline) ([1]; time 0 min (baseline)): 100 percentage of baseline
- Strip length (as percentage of baseline) ([1]; time 5 min): 105.7** percentage of baseline
- Strip length (as percentage of baseline) ([1]; time 10 min): 103.6* percentage of baseline
- Strip length (as percentage of baseline) ([1]; time 15 min): 101.8* percentage of baseline
- Strip length (as percentage of baseline) ([1]; time 30 min): 99.5 percentage of baseline
- Strip length (as percentage of baseline) ([1]; time 45 min): 98.7 percentage of baseline
- Strip length (as percentage of baseline) ([1]; time 60 min): 98.0* percentage of baseline
- Effect on contraction induced by acetylcholine ([1]; lidocaine 70 mg/L, conclusion in words): reversed
